Data reported in patent US6384047B1, “Benzonaphthyridine” (Byk Gulden Lomberg Chemische Fabrik GmbH, priority 1997, dated 2002).

What was measured:
[1] = biological target: T1, PDE3 (cGMP-inhibited), homogenates of human blood platelets (Homo sapiens, UniProt Q14432); experiment: Inhibition of the PDE isoenzymes: PDE3; assay type: biochemical; settings: cAMP as substrate, read-out: PDE3 inhibitory concentration as -log IC50 (converted)
T1 construct: were investigated in homogenates of human blood platelets; from tissue; host or cells: human blood platelets (homogenate)
T1 sequence (Q14432 whole entry): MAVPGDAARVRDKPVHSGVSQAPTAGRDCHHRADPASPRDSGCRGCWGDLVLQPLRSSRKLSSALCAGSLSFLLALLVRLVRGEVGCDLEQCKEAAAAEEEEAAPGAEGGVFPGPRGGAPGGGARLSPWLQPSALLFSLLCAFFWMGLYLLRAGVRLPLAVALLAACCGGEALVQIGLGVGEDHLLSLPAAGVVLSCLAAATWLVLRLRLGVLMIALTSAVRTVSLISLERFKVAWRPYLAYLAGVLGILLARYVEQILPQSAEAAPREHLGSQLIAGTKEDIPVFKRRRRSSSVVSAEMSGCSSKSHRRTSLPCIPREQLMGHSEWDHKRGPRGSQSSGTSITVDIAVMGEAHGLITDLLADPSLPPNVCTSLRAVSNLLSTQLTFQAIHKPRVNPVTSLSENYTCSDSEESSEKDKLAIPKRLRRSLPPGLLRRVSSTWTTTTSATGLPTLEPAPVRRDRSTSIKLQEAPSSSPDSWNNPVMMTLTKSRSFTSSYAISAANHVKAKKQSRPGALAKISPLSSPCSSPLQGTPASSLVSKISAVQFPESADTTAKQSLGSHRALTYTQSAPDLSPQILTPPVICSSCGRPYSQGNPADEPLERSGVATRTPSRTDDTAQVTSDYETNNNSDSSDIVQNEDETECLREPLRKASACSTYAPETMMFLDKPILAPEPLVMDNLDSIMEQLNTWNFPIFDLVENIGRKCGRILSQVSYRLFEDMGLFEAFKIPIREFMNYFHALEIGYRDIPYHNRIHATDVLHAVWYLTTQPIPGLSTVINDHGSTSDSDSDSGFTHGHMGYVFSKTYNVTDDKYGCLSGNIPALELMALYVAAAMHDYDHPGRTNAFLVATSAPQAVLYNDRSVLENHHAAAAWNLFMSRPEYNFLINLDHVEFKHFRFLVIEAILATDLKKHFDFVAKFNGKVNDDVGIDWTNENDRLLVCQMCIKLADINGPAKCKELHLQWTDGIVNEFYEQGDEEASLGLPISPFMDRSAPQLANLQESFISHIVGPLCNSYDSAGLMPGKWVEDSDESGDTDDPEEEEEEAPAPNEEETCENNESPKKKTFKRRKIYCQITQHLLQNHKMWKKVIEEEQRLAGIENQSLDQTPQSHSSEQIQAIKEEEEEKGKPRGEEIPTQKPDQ
Protocol: (§1) The PDE activity was determined according to Thompson et al. (1) with a few modifications (2). The test samples contained 40 mM tris HCl (pH 7.4), 5 mM MgCl2, 0.5 μM cAMP or cGMP, [^3H] cAMP or [^3H]cGMP (about 50,000 cpm/sample), the PDE isoenzyme-specific additives described in greater detail below, the given concentrations of inhibitor and an aliquot of the enzyme solution in a total sample volume of […]. […] After preincubation at 37° C. for 5 minutes, the reaction was started by addition of the substrate (cAMP or cGMP). The samples were incubated at 37° C. for a further 15 min. The reaction was stopped by addition of 50 μl of 0.2N HCl. After cooling on ice for 10 minutes and addition of 25 μg of 5′-nucleotidase (snake venom from Crotalus atrox), incubation was carried out again for 10 min. at 37° C. and the samples were then applied to QAE Sephadex A-25 columns. The columns were eluted with 2 ml of 30 mM ammonium formate (pH 6.0). The radioactivity of the eluate was measured and corrected by the corresponding blank values. The proportion of hydrolyzed nucleotide in no case exceeded 20% of the original substrate concentration.
(§2) PDE3 (cGMP-inhibited) and PDE5 (cGMP-specific) were investigated in homogenates of human blood platelets [Schudt et al. (4)] using cAMP or cGMP as a substrate.
(§3) The IC50 values were determined from the concentration inhibition curves by nonlinear regression using the program GraphPad InPlot™ (GraphPad Software Inc., Philadelphia, USA).

[2] = biological target: PDE4 (cAMP-specific), cytosol of human polymorphonuclear leucocytes (PMNL); experiment: Inhibition of the PDE isoenzymes: PDE4; assay type: biochemical; settings: cAMP as substrate, motapizone (1 μM) present
Protocol: as §1
PDE4 (cAMP-specific) was investigated in the cytosol of human polymorphonuclear leucocytes (PMNL) [isolated from leucocyte concentrates, see Schudt et al. (5)] using cAMP as a substrate. The PDE3 inhibitor motapizone (1 μM) was used in order to suppress the PDE3 activity emanating from contaminating blood platelets.
as §3

[3] = test system: human PMNL; experiment: Inhibition of the formation of reactive oxygen species (FMLP-stimulated chemiluminescence) in human PMNL; assay type: cell-based; settings: 0.05 h, FMLP 100 nM, luminol-potentiated chemiluminescence, AUC over 3 min, read-out: Inhibition of the FMLP-stimulated chemiluminiscence in human PMNL in vitro, inhibitory concentration as -log IC50 (converted)
Source text: In the investigation of PDE4 inhibition at the cellular level, the activation of inflammatory cells has particular importance. An example which may be mentioned is the FMLP (N-formylmethionylleucylphenylalanine)-induced superoxide production of neutrophilic granulocytes, which can be measured as luminol-potentiated chemiluminescence [McPhail L C, Strum S L, Leone P A and Sozzani S, The neutrophil respiratory burst mechanism. In “Immunology Serie” 1992, 57, 47-76; ed. Coffey R G (Marcel Decker, Inc., New York-Basel-Hong Kong)].
The formation of reactive oxygen species determined by means of luminol-potentiated chemiluminescence (5) and the isolation of the PMNL from human blood (6) was carried out essentially as described in (5) and (6): equal-size portions (0.5 ml) of the cell suspension (10^7 cells/ml) were preincubated at 37° C. for 5 min. In the absence or presence of the compounds to be investigated in a buffer solution containing 140 mM NaCl, 5 mM KCl, 10 mM HEPES, 1 mM CaCl2/MgCl2, 1 mg/ml of glucose, 0.05% (w/v) BSA (bovine serum albumin), 10 μM luminol and 4 μM microperoxidase. […]
as §3

[4] = biological target: T2, PDE5 (cGMP-specific), homogenates of human blood platelets (Homo sapiens, UniProt O76074); experiment: Inhibition of the PDE isoenzymes: PDE5; assay type: biochemical; settings: cGMP as substrate, read-out: PDE5 inhibitory concentration as -log IC50 (converted)
T2 construct: were investigated in homogenates of human blood platelets; from tissue; host or cells: human blood platelets (homogenate)
Protocol: as §1, §2, §3

[5] = biological target: PDE1 (Ca2+/calmodulin-dependent) from bovine brain; experiment: Inhibition of the PDE isoenzymes: PDE1; assay type: biochemical; settings: Ca2+ (1 mM) and calmodulin (100 nM), cGMP as substrate
Protocol: as §1
PDE1 (Ca^2+/calmodulin-dependent) from bovine brain: the inhibition of this isoenzyme was investigated in the presence of Ca^2+ (1 mM) and calmodulin (100 nM) using cGMP as a substrate (3).
as §3

[6] = biological target: T3, PDE2 (cGMP-stimulated) from rats' hearts (Rattus norvegicus, UniProt Q01062); experiment: Inhibition of the PDE isoenzymes: PDE2; assay type: biochemical; settings: in presence of cGMP (5 μM), cAMP as substrate, read-out: PDE2 inhibitory concentration as -log IC50 (converted)
T3 construct: PDE2 (cGMP-stimulated) from rats' hearts was purified chromatographically; from tissue; host or cells: rat heart
T3 sequence (Q01062 1-928): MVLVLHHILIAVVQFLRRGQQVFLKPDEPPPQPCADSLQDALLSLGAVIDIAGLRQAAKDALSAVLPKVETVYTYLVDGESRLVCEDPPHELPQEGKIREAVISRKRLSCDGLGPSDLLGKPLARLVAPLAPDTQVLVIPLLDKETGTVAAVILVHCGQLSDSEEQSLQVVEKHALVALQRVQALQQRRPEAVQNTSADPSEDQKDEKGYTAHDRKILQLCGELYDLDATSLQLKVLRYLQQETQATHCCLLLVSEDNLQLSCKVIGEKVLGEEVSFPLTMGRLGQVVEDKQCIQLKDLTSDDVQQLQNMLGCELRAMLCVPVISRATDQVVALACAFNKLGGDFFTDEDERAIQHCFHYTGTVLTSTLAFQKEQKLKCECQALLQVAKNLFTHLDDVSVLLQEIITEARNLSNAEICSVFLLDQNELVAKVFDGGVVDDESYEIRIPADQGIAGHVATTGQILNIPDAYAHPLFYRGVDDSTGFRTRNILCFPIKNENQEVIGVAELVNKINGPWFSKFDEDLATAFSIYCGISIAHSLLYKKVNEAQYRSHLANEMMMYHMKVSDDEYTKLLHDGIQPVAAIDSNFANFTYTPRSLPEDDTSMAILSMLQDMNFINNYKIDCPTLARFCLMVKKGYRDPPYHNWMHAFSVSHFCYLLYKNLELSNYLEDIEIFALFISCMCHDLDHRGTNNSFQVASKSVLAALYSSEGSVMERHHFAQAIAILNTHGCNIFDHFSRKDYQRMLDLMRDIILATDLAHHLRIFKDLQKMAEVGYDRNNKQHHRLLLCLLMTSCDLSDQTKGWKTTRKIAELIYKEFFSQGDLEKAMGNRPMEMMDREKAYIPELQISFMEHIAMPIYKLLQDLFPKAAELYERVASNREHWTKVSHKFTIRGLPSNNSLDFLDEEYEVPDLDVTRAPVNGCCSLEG
Protocol: as §1
PDE2 (cGMP-stimulated) from rats' hearts was purified chromatographically [Schudt et al. (4)] and investigated in the presence of cGMP (5 μM) using cAMP as a substrate.
as §3

IC50 [1] | melting point | PDE4 inhibitory concentration as -log IC50 [2] | IC50 [3] | IC50 [4] | PDE1 inhibitory concentration as -log IC50 [5] | IC50 [6] | Compound
0.0794 µM | 267 to 268 °C | 8.60 | 0.0407 µM | 0.0912 µM | <5 | 1.1 µM | CCOc1cc2c(cc1OCC)[C@@H]1CN(C)CC[C@@H]1N=C2c1ccc(NS(=O)(=O)c2ccc(C)cc2)cc1 (relative stereo) [Compound 1, (−)-cis-8,9-Diethoxy-2-methyl-6-[4-(p-toluenesulfonamido)-phenyl]-1,2,3,4,4a,10b-hexahydro-benzo[c][1,6]naphthyridine]
0.0525 µM | 207 to 219 °C | 9.00 |  | 0.182 µM | 5.14 | 0.407 µM | CCOc1cc2c(cc1OC)C(c1ccc(NS(=O)(=O)c3ccc(C)cc3)cc1)=N[C@H]1CCN(C)C[C@@H]21 (relative stereo) [Compound 2, (−)-cis-9-Ethoxy-8-methoxy-2-methyl-6-[4-(p-toluenesulfonamido)-phenyl]-1,2,3,4,4a,10b-hexahydro-benzo[c][1,6]naphthyridine]
0.0955 µM |  | 7.20 | 0.851 µM | 2.34 µM | 4.75 | 0.813 µM | COc1cc2c(cc1OC)[C@@H]1CN(C)CC[C@@H]1N=C2c1ccc(NS(=O)(=O)c2ccc(C)cc2)cc1 (relative stereo) [Tolafentrine, (−)-cis-8,9-Dimethoxy-2-methyl-6-[4-(p-toluenesulfonamido)-phenyl]-1,2,3,4,4a,10b-hexahydrobenzo[c][1,6]naphthyridine, reference compound]
